Experimental data reported in PubChem BioAssay (NCI).
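Following 48 hours of exposure in 96-well plates, responses at five concentrations were used to interpolate endpoints linearly. At the TGI there is no net growth.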

What was measured:
Assay in all cases: DTP human tumour cell line panel, 48 h
[1] = tested on: SK-MEL-5 melanoma
[2] = tested on: MOLT-4 leukemia
[3] = tested on: A549 NSCLC
[4] = tested on: PC-3 prostate
[5] = tested on: NCI-H460 lung
[6] = tested on: SNB-75 CNS
[7] = tested on: K-562 leukemia
[8] = tested on: RXF 393 renal
[9] = tested on: SF-295 CNS
[10] = tested on: UACC-62 melanoma
[11] = tested on: SF-539 CNS
[12] = tested on: SNB-19 CNS
[13] = tested on: OVCAR-3 ovarian
[14] = tested on: CAKI-1 renal
[15] = tested on: MCF7 breast
[16] = tested on: HOP-62 NSCLC
[17] = tested on: CCRF-CEM leukemia
[18] = tested on: COLO 205 colon
[19] = tested on: KM12 colon
[20] = tested on: SK-MEL-28 melanoma

| Structure (SMILES) | TGI [1] | TGI [2] | TGI [3] | TGI [4] | TGI [5] | TGI [6] | TGI [7] | TGI [8] | TGI [9] | TGI [10] | TGI [11] | TGI [12] | TGI [13] | TGI [14] | TGI [15] | TGI [16] | TGI [17] | TGI [18] | TGI [19] | TGI [20] |
| --- | --- | --- | --- | --- | --- | --- | --- | --- | --- | --- | --- | --- | --- | --- | --- | --- | --- | --- | --- | --- |
| O=c1[nH]c2ccc(Cl)cc2o1 | > 100 µM | > 100 µM | > 100 µM | > 100 µM | > 100 µM | > 100 µM | > 100 µM | > 100 µM | > 100 µM | > 100 µM | > 100 µM | > 100 µM | > 100 µM | > 100 µM | > 100 µM | > 100 µM | > 100 µM | > 100 µM | > 100 µM |  |
| COC(=O)[C@@H](NC(=O)[C@H](N)Cc1ccc(N(CCCl)CCCl)cc1)C(C)C | 10.8 µM | 0.234 µM | > 100 µM | > 100 µM | 26.3 µM | 66.6 µM | 40.3 µM | 55.5 µM | > 100 µM | 13.4 µM | 67.6 µM | > 100 µM | > 72.8 µM | 7.53 µM | > 100 µM | > 100 µM | > 29.6 µM | > 64.4 µM | 66.4 µM | 40.4 µM |
| COc1cccc(/C=C2\SC(=S)N(/C=C3\C(=O)Oc4ccccc4C3=O)C2=O)c1O | > 100 µM | > 100 µM | > 100 µM | > 100 µM | > 100 µM | > 100 µM | > 100 µM | > 100 µM | > 100 µM | > 100 µM | 83.2 µM | > 100 µM | 95.7 µM | > 100 µM | > 100 µM | > 100 µM | > 100 µM | > 100 µM | > 100 µM | > 100 µM |
| CC(NP(=O)(c1ccccc1)c1ccccc1)c1ccccc1 (stereo unspecified) | > 100 µM | > 100 µM | > 100 µM | > 100 µM | > 100 µM | > 100 µM | > 100 µM | > 100 µM | > 100 µM | > 100 µM | > 100 µM | > 100 µM | > 100 µM | > 100 µM | > 100 µM | > 100 µM | > 100 µM | > 100 µM | > 100 µM | > 100 µM |
| COc1cc2c(c(OC)c1OC)C(=O)[C@@H](O)[C@H]2NC(N)=O | > 100 µM | > 100 µM | > 100 µM | > 100 µM | > 100 µM | > 100 µM | > 100 µM | > 100 µM | > 100 µM | > 100 µM | > 100 µM | > 100 µM | > 100 µM | > 100 µM | > 100 µM | > 100 µM | > 100 µM | > 100 µM | > 100 µM | > 100 µM |
| CCOC(=O)CC(=O)Nc1cccc2sc3ncccc3c(=O)c12 | 40.5 µM | > 100 µM | > 100 µM | > 100 µM | > 100 µM | > 100 µM | > 100 µM | 35.8 µM | > 100 µM | > 100 µM | > 100 µM | > 100 µM | > 100 µM | > 100 µM | > 100 µM | > 100 µM | > 100 µM | > 100 µM | > 100 µM | > 100 µM |
| C=CCc1oc(C)nc1CCCC | > 100 µM | > 100 µM | > 100 µM | > 100 µM | > 100 µM | > 100 µM | > 100 µM | > 100 µM | > 100 µM | > 100 µM | > 100 µM | > 100 µM | > 100 µM | > 100 µM | > 100 µM | > 100 µM | > 100 µM | > 100 µM | > 100 µM | > 100 µM |
| CCCCCCc1cc2cc(-c3cn4c(n3)sc3ccccc34)c(=O)oc2cc1O | > 100 µM | > 100 µM | > 100 µM | > 100 µM | > 100 µM | > 100 µM | > 100 µM | > 100 µM | > 100 µM | 5.58 µM | > 100 µM | > 100 µM | > 100 µM | > 100 µM | > 100 µM | > 100 µM | > 100 µM | > 100 µM | > 100 µM | > 100 µM |
| COc1ccc2c(C)cc(N/N=C/c3ccc(C)s3)nc2c1 | 16 µM | 36.9 µM | 39.7 µM | 37.1 µM | 20 µM | > 83.9 µM | > 100 µM | 33.8 µM | 26.8 µM | > 54.6 µM | 36.5 µM | > 67.2 µM | 8.88 µM | 34.4 µM | 25.3 µM | 56.9 µM | > 93.7 µM | 9.24 µM | > 57 µM | > 100 µM |
| Cc1ccc2c(c1)C=CC1(O2)N(c2ccccc2)C(=S)OC1(C)C (stereo unspecified) | > 100 µM | > 100 µM | > 100 µM | > 100 µM | > 100 µM | > 100 µM | > 100 µM | > 100 µM | > 100 µM | > 100 µM |  | > 100 µM | > 100 µM | > 100 µM | > 100 µM | > 100 µM | > 100 µM | > 100 µM | > 100 µM | > 100 µM |
| CC(C)(C)C1=CC(=C2C=Cc3cc(O)ccc3O2)C=C(C(C)(C)C)C1=O | 2.94 µM |  | 3.04 µM | 3.01 µM | 2.7 µM | 3.3 µM | 8.51 µM | 3.16 µM | 3.45 µM | 2.76 µM | 3.4 µM | 3.3 µM | 2.72 µM | 3.11 µM | 3.02 µM | 4.02 µM | 3.45 µM | 3.25 µM | 3.73 µM | 3.64 µM |
| CSc1ncc2c(C#N)c3[nH]c4ccccc4n3c(=O)c2n1 | 25.2 µM | 24.6 µM |  | 48.7 µM | 87.8 µM | > 100 µM | 46 µM | 95.5 µM | > 100 µM | 21.2 µM | > 100 µM | > 100 µM | 45.2 µM | 78.4 µM | > 100 µM | > 100 µM | 27.8 µM | 35.1 µM | > 100 µM |  |
| CCOC(=O)c1c(N2CCOCC2)ncn(-c2cccc(Cl)c2)c1=O |  | > 100 µM | > 100 µM | > 100 µM | > 100 µM | > 100 µM | > 100 µM | > 100 µM | > 100 µM | > 100 µM | > 100 µM | > 100 µM | > 100 µM | > 100 µM | > 100 µM | > 100 µM | > 100 µM | > 100 µM | > 100 µM | > 100 µM |
| CC(C)OC(=O)C1(C(C)C)CCc2ccc(C(=O)CCC(=O)O)cc21 (stereo unspecified) | > 100 µM | > 100 µM | > 100 µM | > 100 µM | > 100 µM | > 100 µM | > 100 µM | > 100 µM | > 100 µM | > 100 µM | > 100 µM | > 100 µM |  | > 100 µM | > 100 µM | > 100 µM | > 100 µM | > 100 µM | > 100 µM | > 100 µM |
| CC1=NN(C(=O)CC(=O)NC(=O)/C=C\c2ccccc2)C(=O)C1N=Nc1ccc([N+](=O)[O-])cc1 (stereo unspecified) |  | > 100 µM | > 100 µM | > 100 µM | > 100 µM | > 100 µM | > 100 µM | > 100 µM | > 100 µM | > 100 µM | > 100 µM | > 100 µM | > 100 µM | > 100 µM | > 100 µM | > 100 µM | > 100 µM | > 100 µM | > 100 µM | > 100 µM |
| O=C(O/N=c1/ccc(=O)/c(=N\OC(=O)c2ccccc2)c1=O)c1ccccc1 | > 100 µM | > 100 µM | > 100 µM | > 100 µM | > 100 µM | > 100 µM | > 100 µM | > 100 µM | > 100 µM |  | > 100 µM | > 100 µM | > 100 µM | > 100 µM | > 100 µM | > 100 µM | 89.7 µM | > 100 µM | > 100 µM | > 100 µM |
| Nc1n[nH]c2c(C(=O)Nc3ccc(Cl)cc3)c(N)n(N)c(=O)c12 | > 100 µM | > 100 µM | > 100 µM | > 100 µM | > 100 µM | > 100 µM | > 100 µM | > 100 µM |  | > 100 µM | > 100 µM | > 100 µM | > 100 µM | > 100 µM | > 100 µM |  | > 100 µM | > 100 µM | > 100 µM | > 100 µM |
| CC[C@@H]([C@H](O)c1ccccc1Cl)[N+](=O)[O-] | > 100 µM |  | > 100 µM | > 100 µM | > 100 µM | > 100 µM |  | > 100 µM | > 100 µM | > 100 µM | > 100 µM | > 100 µM | > 100 µM | > 100 µM | > 100 µM | > 100 µM | > 100 µM | > 100 µM | > 100 µM | > 100 µM |
| O=CC(O)C(O)C1OC(=O)c2cc(O)c(O)c(O)c2C2=C(O)C(O)=C3OC(=O)c4c(c(O)c(O)c5c4C3C2C(=O)O5)-c2c(cc(O)c(O)c2O)C(=O)OCC1O (stereo unspecified) | > 100 µM | 63.3 µM | > 100 µM | > 100 µM | > 100 µM | > 100 µM | 56.7 µM | > 100 µM | > 100 µM | > 100 µM |  | > 100 µM | 57 µM | 37.7 µM | 39.7 µM | > 100 µM | > 100 µM | > 100 µM | 31.2 µM | > 100 µM |
